Experimental findings from US11667658B2, “Chemical synthesis of the organoarsenical antibiotic arsinothricin” (The Florida International University Board of Trustees, priority 2021, dated 2023) are described below.

This experiment has as its system PpArsN1, the AST-selective N-acetyltransferase. Nature of the experiment: Enzymatic N-acetylation of AST by PpArsN1 (HPLC-ICP-MS). In kind it is biochemical, Pseudomonas putida KT2440. As for the experimental part:
Enzymatic N-acetylation of AST (1). PpArsN1, the AST-selective N-acetyltransferase from Pseudomonas putida KT2440, was purified. […] The reaction solution was filtered using an Amicon Ultra centrifugal filter with a 3K cutoff membrane (MilliporeSigma), and arsenic species in the filtrate were analyzed by HPLC-ICP-MS.

For the molecule `C[As](=O)(O)CCC(N)C(=O)O` (centres unmarked) [bAST], the “conversion to L-N-Ac-AST by PpArsN1 (in words)” value (PpArsN1/AcCoA, HPLC-ICP-MS (FIG. 23)) is on record as “nearly completely converted”.
Turning to `C[As](=O)(O)CCC(N)C(=O)O` (centres unmarked) [sAST], the “conversion to L-N-Ac-AST by PpArsN1” value (10 μM AST, 0.2 μM PpArsN1, 0.2 mM AcCoA, 37° C., 30 min (FIG. 23)) was determined as 50%.
